What all share (assay): relative viability (nuclei count vs DMSO), 5 days (fraction); higher = more cells survive
Compound in the assay “Linifanib + Palbociclib”: Cc1ccc(F)c(NC(=O)Nc2ccc(-c3cccc4[nH]nc(N)c34)cc2)c1 [Linifanib] + CC(=O)c1c(C)c2cnc(Nc3ccc(N4CCNCC4)cn3)nc2n(C2CCCC2)c1=O [Palbociclib] (partner 0.5 µM)
In outline:
(§1)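 Lung cancer cell lines in 1536-well plates got either a single drug or a fixed anchor-drug dose together with five library-drug doses (not always all listed) in √10 steps, by pin tool, on the day after seeding. Nuclei were counted after 5 days, and relative viability is the treated-to-vehicle ratio of nuclei counts. Values are medians of duplicate plates.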

Compound in the assay “Linifanib + Luminespib”: Cc1ccc(F)c(NC(=O)Nc2ccc(-c3cccc4[nH]nc(N)c34)cc2)c1 [Linifanib] + CCNC(=O)c1noc(-c2cc(C(C)C)c(O)cc2O)c1-c1ccc(CN2CCOCC2)cc1 [Luminespib] (partner 0.01 µM)
In outline:
as §1

Compound in the assay “Linifanib + Pictilisib”: Cc1ccc(F)c(NC(=O)Nc2ccc(-c3cccc4[nH]nc(N)c34)cc2)c1 [Linifanib] + CS(=O)(=O)N1CCN(Cc2cc3nc(-c4cccc5[nH]ncc45)nc(N4CCOCC4)c3s2)CC1 [Pictilisib] (partner 1 µM)
In outline:
as §1

Compound in the assay “Linifanib + Dasatinib”: Cc1ccc(F)c(NC(=O)Nc2ccc(-c3cccc4[nH]nc(N)c34)cc2)c1 [Linifanib] + Cc1nc(Nc2ncc(C(=O)Nc3c(C)cccc3Cl)s2)cc(N2CCN(CCO)CC2)n1 [Dasatinib] (partner 0.075 µM)
In outline: as §1

Compound in the assay “Linifanib + Phenformin”: Cc1ccc(F)c(NC(=O)Nc2ccc(-c3cccc4[nH]nc(N)c34)cc2)c1 [Linifanib] + N=C(N)NC(=N)NCCc1ccccc1 [Phenformin] (partner 250 µM)
In short, it runs like this:
as §1

Compound in the assay “Linifanib + Vorinostat”: Cc1ccc(F)c(NC(=O)Nc2ccc(-c3cccc4[nH]nc(N)c34)cc2)c1 [Linifanib] + O=C(CCCCCCC(=O)Nc1ccccc1)NO [Vorinostat] (partner 1 µM)
In outline:
as §1

The values below come from the supplement of paper PMC10307832.

Consider NCI-H647, for which the relative viability with Linifanib + Palbociclib (first compound 0.03162 µM) was 0.342; in the assay with Linifanib + Palbociclib (first compound 0.1 µM), 0.506; with Linifanib + Palbociclib (first compound 0.3162 µM), 0.484; with Linifanib + Luminespib (first compound 0.03162 µM), 0.149; with Linifanib + Luminespib (first compound 0.1 µM), 0.325; with Linifanib + Luminespib (first compound 0.3162 µM) it was 0.114. In addition, the relative viability in the assay with Linifanib + Pictilisib (first compound 0.03162 µM) was 0.313; with Linifanib + Pictilisib (first compound 0.1 µM) it was 0.512; in the assay with Linifanib + Pictilisib (first compound 0.3162 µM) it was 0.417; with Linifanib + Dasatinib (first compound 0.03162 µM), 0.194; with Linifanib + Dasatinib (first compound 0.1 µM), 0.231; with Linifanib + Dasatinib (first compound 0.3162 µM), 0.183. The relative viability was 0.654 with Linifanib + Phenformin (first compound 0.03162 µM); 0.441 in the assay with Linifanib + Phenformin (first compound 0.1 µM); 0.522 with Linifanib + Phenformin (first compound 0.3162 µM); 0.638 in the assay with Linifanib + Vorinostat (first compound 0.03162 µM); 0.672 with Linifanib + Vorinostat (first compound 0.1 µM); 0.516 in the assay with Linifanib + Vorinostat (first compound 0.3162 µM).

Consider NCI-H1734, for which the relative viability with Linifanib + Palbociclib (first compound 0.03162 µM) was determined as 0.322; with Linifanib + Palbociclib (first compound 0.1 µM) it was 0.357; with Linifanib + Palbociclib (first compound 0.3162 µM), 0.394; with Linifanib + Luminespib (first compound 0.03162 µM), 0.223; with Linifanib + Luminespib (first compound 0.1 µM) it was 0.216; in the assay with Linifanib + Luminespib (first compound 0.3162 µM), 0.174. The relative viability in the assay with Linifanib + Pictilisib (first compound 0.03162 µM) was determined as 0.501; with Linifanib + Pictilisib (first compound 0.1 µM) it was 0.526; in the assay with Linifanib + Pictilisib (first compound 0.3162 µM), 0.373; with Linifanib + Dasatinib (first compound 0.03162 µM), 0.529; in the assay with Linifanib + Dasatinib (first compound 0.1 µM) it was 0.53; in the assay with Linifanib + Dasatinib (first compound 0.3162 µM), 0.428. The relative viability with Linifanib + Phenformin (first compound 0.03162 µM) is 0.384; with Linifanib + Phenformin (first compound 0.1 µM), 0.454; with Linifanib + Phenformin (first compound 0.3162 µM), 0.366; with Linifanib + Vorinostat (first compound 0.03162 µM) it was 0.815; with Linifanib + Vorinostat (first compound 0.1 µM), 0.849; with Linifanib + Vorinostat (first compound 0.3162 µM), 0.83.
